# Results reported in patent US20230338340A1, “Methods of Treating Cystic Fibrosis” (The Trustees of Dartmouth College, priority 2020, published 2023).
# Columns and labels:
# [1] = system: HBE primary cells; assay: Airway surface liquid (ASL) volume after forskolin stimulus in HBE primary cells; format: cell-based; details: 20 μM, basolateral, 4 hr
# Procedure: A functional test for CFTR activity is the determination of airway surface liquid (ASL) height, reflecting ion transport and associated osmotic recruitment of water, following activation of CFTR ion transport via forskolin stimulation. This functional test is directly related to one of the hallmarks of CF: the viscosity of airway mucus due to lack of anion transport.
# Example 6 or Example 9 (20 μM each) or DMSO (CTR; 0.02%; […]) was added to the basolateral medium for 4 hr. Subsequently, forskolin (20 μM) and IBMX (1 mM) was added to the apical and basolateral medium. The test compounds were added for 30 min directly to the basolateral medium, and they were added in 10 μL medium to the apical side. The 10 μL volume was subtracted from the ASL volume (N=2-4/group).
# [2] = target: T1, Human-Dab2-DH (Homo sapiens, UniProt P98082); assay: Dab2 FP competition assay via HTS; format: binding
# T1 construct: fused on or other part: N-terminal 10xHis tag with a 3C protease site, cleaved off unless otherwise indicated
# T1 sequence (P98082 33-178 limits assumed): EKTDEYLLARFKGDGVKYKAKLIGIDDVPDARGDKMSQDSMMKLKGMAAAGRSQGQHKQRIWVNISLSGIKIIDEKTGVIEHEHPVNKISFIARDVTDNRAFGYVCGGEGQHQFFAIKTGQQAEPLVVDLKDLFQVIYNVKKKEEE
# Procedure: (§1) CALP and/or Dab2 inhibition assays were performed in biochemical “mix-and-measure” format in order to evaluate the effects on activation and inhibition of CALP and/or Dab2 by the compounds of the disclosure. Brief assay procedure is provided below. Unless otherwise specified, all of the compounds were obtained from commercial sources.
# Dab-2 inhibitors were also identified by FP competition assays via HTS. Human-Dab2-DH, residues 31-191 (Uniprot: P98082), and trDab2-DH (residues 33-178) was subcloned into the pET16b vector via PCR utilizing the restriction enzyme sites of Xhol and BamHI. The construct was designed with a 3C protease cleavage site directly upstream and in-frame with the protein coding sequence. DNA was sequence verified. (0.1 mM) IPTG was used to induce protein expression in E. coli BL21(DE3)RIL cells, after reaching an O.D. of […]. […] Followed by 3C cleavage of the 10×His tag (unless otherwise indicated), and a second nickel affinity column to remove the 3C protease and excess tag. Dab2-DH was dialyzed into FP storage buffer (25 mM Tris pH 8.0, 150 mM NaCl, 0.1 mM TCEP, and 0.02% sodium azide). Fluorescent reporter peptides, TIVR*STA02 (TMR*-[…]) and TMR*STA03 (TMR*-[…]), were purchased commercially with the following sequence where TMR* denotes a N-terminal tetramethylrhodamine group coupled via an aminohexanoic acid linker. An unlabled positive control peptide STA02 ([…]) was also purchased commercially. Inhibitors of Dab2-DH were identified from a variety of sources with various protocols outlined below.
# For screens conducted at the Novartis Institutes for BioMedical Research FAST Lab, single-dose HTS assays were performed with libraries comprising ˜52,000 compounds at 20 μM doses. Experiments were conducted as described for screens at the University of Pittsburgh Lab and Drug Discovery Institute, except that Dab2-DH, not trDab2-DH, was used as the protein source.
# For screens conducted at the Broad Institute, compound transfers were done using a 384-well pin tool equipped with 100 nL hydrophobic surface coated pins. 100 nL of DMSO (negative control), STA02 (positive control), or library compounds were dispensed into 20 μL of protein (200 nM) and reporter (F*-STA02, 30 nM) mixture with 0.1 mg/ml mouse IgG and 0.5 mM Thesit. Final concentrations in the mixture were DMSO ([…]), STA02 (20 μM), and compounds (18 μM). Plates were incubated for 35-45 minutes before measuring polarization. Compounds were tested in duplicates on two separate plates. Positive and negative controls were included in each individual plate.
# For experiments conducted at the University of Pittsburgh Lab and Drug Discovery Institute, single-dose HTS assays were performed with a library containing ˜220,000 compounds. On the day of screening, a master mix of equal parts trDab2-DH (900 nM) and TMP-STA03 (90 nM) was prepared. Compound plates containing assay ready 2 μL aliquots of a 1 mM stock solution in DMSO were thawed, reconstituted in FP buffer to a concentration of 30 μM in 3% DMSO, and five μL transferred to low volume assay plates using a Perkin Elmer MDT. Ten μL of master mix were added by a Microflo bulk liquid dispenser (Biotek, Winooski, VT) and processed as described in the general protocol above. Each plate contained 32 wells of positive (Dab2-DH+probe+DMSO) and negative (Dab2-DH+probe +10 μM STA03) controls. Plates were read at 1.5-h and 4-h on the Envision multilabel reader.
# [3] = target: T2, Dab2-DH (Homo sapiens, UniProt P98082); assay: Dab2-DH FP competitive displacement experiments (F*-STA02 reporter); format: binding; details: text b140
# T2 construct: Human-Dab2-DH, residues 31-191 (Uniprot: P98082); 10xHis (3C protease site) (N, cleaved yes); made in house; host or cells: E. coli BL21(DE3)RIL
# T2 sequence (P98082 31-191): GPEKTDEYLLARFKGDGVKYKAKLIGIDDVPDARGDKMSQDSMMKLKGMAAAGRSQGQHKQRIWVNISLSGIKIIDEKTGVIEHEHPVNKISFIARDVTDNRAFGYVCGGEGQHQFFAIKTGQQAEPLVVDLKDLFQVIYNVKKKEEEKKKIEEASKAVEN
# [4] = target: T3, CAL PDZ (Homo sapiens, UniProt Q9HD26); assay: FP assay of peptide binding by CAL PDZ pre-labeled with compound (apparent KD)
# T3 construct: Recombinant CAL PDZ was expressed and purified in E. coli as previously described; made in house; host or cells: E. coli
# Source text: Next, to probe the biochemical effect example 8 exerts on CAL PDZ-peptide binding, CAL PDZ was pre-labeled with example 8 and performed fluorescence polarization (FP) assays to determine apparent KD values for both unlabeled and labeled CAL PDZ.
# [5] = system: wild-type CFTR; assay: Cell-surface expression of wild-type CFTR in WT-CFBE cells; format: cell-based; details: 1 μM and 5 μM, no correctors or potentiators
# Procedure: The effect of example 8 on cell-surface expression of wild-type CFTR was also tested in the absence of correctors or potentiators. Two doses (1 μM and 5 μM) of example 8 were applied to wild-type cystic fibrosis bronchial epithelial (WT-CFBE) cells and the abundance of WT-CFTR cells in the plasma membrane was quantified.
# [6] = target: T3, CAL PDZ; assay: CALP fluorescence polarization (FP) competition assay, HTS format with dose-response validation; format: binding; set-up: Inhibitory activity CALP at 100 μM: unit not given here
# Procedure: as §1
# CALP inhibitors were identified by fluorescence polarization (FP) competition assays in high-throughput screening (HTS) format. Recombinant CAL PDZ was expressed and purified in E. coli as previously described (Amacher et al., Acta Cyst. (2011) F67, 600-603), and dialyzed into FP storage buffer (25 mM Tris pH 8.5, 150 mM NaCl, 0.1 mM TCEP, and 0.02% sodium azide). A fluorescent reporter peptide, NPG32, was purchased commercially with the following sequence: F*-[…] (F* denotes a N-terminal fluorescein group coupled via an aminohexanoic acid linker). Initial single-dose HTS was performed with libraries comprising ˜52,000 compounds (FAST Lab—Novartis Institutes for BioMedical Research). First, 25 nL of 5 mM small-molecule was transferred to 1536-well Grenier plates. 3 μL of 3.708 μM CALP in FP buffer (FP storage buffer supplemented with […]) was added, and plates were incubated for 10 min. Next, 3 μL of 60 nM NPG32 (in FP buffer) was added. Final reaction volumes were 6 μL and contained 1.854 μM CALP, 30 nM NPG32, and 20.83 μM small-molecule. […] Plates were incubated for 30 minutes at room temperature and anisotropy was measured (480 nm excitation wavelength and 535 nm emission wavelength). […] Compounds were validated in triplicate using 8-point dilution series in half-log increments with two orthogonal assays: FRET and TMR-based FP assay. For the FRET assay, a cerulean-CALP fusion protein (Cer-CALP) was expressed and purified as previously described (Zhao et al., 2018). A fluorescent reporter peptide, PRC34, was purchased commercially with the following sequence: TMR*-[…] (TMR* denotes a N-terminal tetramethylrhodamine group coupled via an aminohexanoic acid linker). First, 40 nL of compound was transferred to the plates. 5 μL of 16.632 μM Cer-CALP was added, and plates were incubated for 30 min. Next, 5 μL of 16.632 μM PRC34 was added, and plates were incubated for 30 min. Final reaction volumes were 10 μL and contained 8.316 μM CALP, 8.316 μM […], and variable concentrations of small-molecule. Negative controls contained equivalent amounts of DMSO (0.4%), while positive controls contained 100 μM NPG30 (sequence: […]). Plates were incubated for 30 min, and emission at 475 nm and 575 nm was measured following excitation at 430 nm. TMR FP assays were conducted as described for the FITC-based assay with the following exceptions: TMR was used as the reporter peptide, the final CALP concentration was 11.952 μM, and the positive control used was 100 μM NPG30.
# [7] = target: T4, CAL PDZC319A (Homo sapiens, UniProt Q9HD26, C327A); assay: MALDI-TOF detection of adduct on point mutant CAL PDZ C319A; format: binding; details: only cysteine mutated to alanine
# T4 construct: point mutant CAL PDZC319A (where the only cysteine residue is mutated to alanine)
# Procedure: (§2) Following incubation of 50 μM protein with 75 μM of example 8, the molecular weight of the samples was determined by MALDI (unlabeled CALP molecular weight: 9464±15 Da; labeled CALP molecular weight: 9623±9 Da).
# [8] = target: T3, CAL PDZ; assay: MALDI-TOF detection of covalent modification of CAL PDZ; format: binding
# Procedure: as §2
# [9] = system: CFTR; assay: Apical membrane abundance of CFTR in WT-CFBE cells (biotinylation, immunoblot); format: cell-based; details: 1 μM
# Procedure: Apical membrane CFTR was normalized for CFTR abundance in cell lysate. N=2 (1h and 2 h) and n=3 (4h). Error bar S.E.M. *p<0.05 versus vehicle control (CTRL; 0.03% water).
# [10] = system: CFTR; assay: CFTR activity in F508del HBE primary cells; format: cell-based; details: 1 μM, 4 hours
# [11] = with VX-770, C-18, CFFT-002, Fsk and IBMX
smiles,measurement,setting,value
"COc1cc(O)c(C(=O)O)c(-c2cc(O)c(O)cc2C)c1 [Example 9, 3,4′,5′-trihydroxy-5-methoxy-2′-methyl-[1,1′-biphenyl]-2-carboxylic acid]",ASL volume generated in response to forskolin stimulus,[1],increased the ASL volume
same,IC50,[2],37 nM
"CN1CCc2cccc3c2[C@@H]1Cc1ccc(O)c(O)c1-3.Cl [Example 12, (S)-6-methyl-5,6,6a,7-tetrahydro-4H-dibenzo[de,g]quinoline-10,11-diol hydrochloride]",Ki,[3],1610 ± 740 nM
same,Inhibitory activity Dab2 at Cmax,"[2]; at Cmax, cells printed with %",~−95%
"O=c1[nH]c2ccc(S(=O)(=O)Nc3ccc(O)c4ccccc34)cc2[nH]1 [Example 8, N-(4-hydroxynaphthalen-1-yl)-2-oxo-2,3-dihydro-1H-benzo[d]imidazole-5-sulfonamide]",Attenuation in peptide binding vs unlabeled CAL PDZ,[4],~4 fold
same,Surface levels of WT-CFTR,[5],reduce surface levels of WT-CFTR
same,Inhibitory activity CALP at 100 μM,[6]; at 100 μM,−72.16
same,IC50,[6]; read-out: Inhibitory activity CALP IC50,4570 nM
same,Adduct on CAL PDZ C319A,[7],no adduct is detected
same,Adduct size / mass shift observed on CAL PDZ,[8],~160 Da
same,Covalent modification of CAL PDZ,[8],covalently modify CAL PDZ
"C=C1c2cccc(O)c2C(O)=C2C(=O)[C@]3(O)C(O)=C(C(N)=O)C(=O)[C@@H](N(C)C)[C@@H]3[C@@H](O)[C@H]12 [Example 10, (4S,4aR,5S,5aR,12aR)-4-(dimethylamino)-1,5,10,11,12a-pentahydroxy-6-methylene-3,12-dioxo-3,4,4a,5,5a,6,12,12a-octahydrotetracene-2-carboxamide]",Abundance of CFTR (apical membrane),[9],increase in the abundance of CFTR
same,CFTR activity,[10]; [11],significant enhancement of CFTR activity
same,Channel activity relative to absence of C-18 and CFFT-002,[10]; [11],approximately 2 fold
same,CFTR activity,"[10]; with VX-770, Fsk and IBMX",significant enhancement of CFTR activity
